Test results taken from PubChem BioAssay AID248 (DTP/NCI, 2004).
Several values for one entry are separate records, joined by “and”; a condition that tells them apart may be missing. Identical values can stand only once. Toxic doses and inconclusive results are not listed. Cut-off read from the data, not from the text of the source: active = T/C of 150% or more; inactive = T/C below 125%.

Test system: L1210 leukemia ip in BDF1 mice, survival T/C
Assay: NCI In Vivo Anticancer Drug Screen. Data for tumor model L1210 Leukemia (intraperitoneal) in B6D2F1 (BDF1) mice
Settings: endpoint: mean survival time, higher = longer survival
Outline: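 Read-out is survival time, reported as the treated-group measurement over the vehicle-control measurement.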

[1] = dose: 100.0 mg/kg/injection, schedule: Q01DX001 (ip), vehicle: saline with Tween-80
[2] = dose: 100.0 mg/kg/injection, schedule: Q01DX009 (ip), vehicle: saline with Tween-80
[3] = dose: 200.0 mg/kg/injection, schedule: Q01DX001 (ip), vehicle: saline with Tween-80
[4] = dose: 200.0 mg/kg/injection, schedule: Q01DX009 (ip), vehicle: saline with Tween-80
[5] = dose: 25.0 mg/kg/injection, schedule: Q04DX002 (ip), vehicle: Klucel (hydroxypropylcellulose) (HPC)
[6] = dose: 50.0 mg/kg/injection, schedule: Q04DX002 (ip), vehicle: Klucel (hydroxypropylcellulose) (HPC)
[7] = dose: 25.0 mg/kg/injection, schedule: Q04DX003 (ip), vehicle: saline with Tween-80
[8] = dose: 50.0 mg/kg/injection, schedule: Q01DX009 (ip), vehicle: saline with Tween-80
[9] = dose: 50.0 mg/kg/injection, schedule: Q04DX003 (ip), vehicle: saline with Tween-80
[10] = dose: 100.0 mg/kg/injection, schedule: Q04DX003 (ip), vehicle: saline with Tween-80
[11] = dose: 100.0 mg/kg/injection, schedule: Q04DX003 (ip), vehicle: Klucel (hydroxypropylcellulose) (HPC)
[12] = dose: 200.0 mg/kg/injection, schedule: Q04DX003 (ip), vehicle: Klucel (hydroxypropylcellulose) (HPC)

Measured: T/C

O=C(O)COc1ccccc1CO
inactive: [1] 91 % of control | [2] 88 % of control | [3] 94 % of control | [4] 94 % of control | dose: 400.0 mg/kg/injection, schedule: Q01DX001 (ip), vehicle: saline with Tween-80 92 % of control | dose: 400.0 mg/kg/injection, schedule: Q01DX009 (ip), vehicle: saline with Tween-80 91 % of control

[Cu+2].[NH-]CC(=O)O.[NH-]CC(=O)O
inactive: dose: 5.0 mg/kg/injection, schedule: Q04DX003 (ip), vehicle: saline 103 % of control | dose: 10.0 mg/kg/injection, schedule: Q04DX003 (ip), vehicle: saline 99 % of control | dose: 20.0 mg/kg/injection, schedule: Q04DX003 (ip), vehicle: saline 94 % of control

C/C(=N\NC(=S)Nc1cc(Cl)ccc1Cl)c1ccc(O)c(C)c1
inactive: dose: 12.5 mg/kg/injection, schedule: Q04DX002 (ip), vehicle: Klucel (hydroxypropylcellulose) (HPC) 102 % of control | [5] 102 % of control | [6] 105 % of control

COc1ccc([N+](=O)[O-])cc1NC(=O)Oc1ccc(F)cc1Cl
inactive: dose: 50.0 mg/kg/injection, schedule: Q01DX009 (ip), vehicle: Klucel (hydroxypropylcellulose) (HPC) 108 % of control | dose: 100.0 mg/kg/injection, schedule: Q01DX009 (ip), vehicle: Klucel (hydroxypropylcellulose) (HPC) 111 % of control | dose: 200.0 mg/kg/injection, schedule: Q01DX009 (ip), vehicle: Klucel (hydroxypropylcellulose) (HPC) 90 % of control

O=C1c2ccccc2C(=O)N1C1CCC(O)CC1 (stereo unspecified)
inactive: dose: 25.0 mg/kg/injection, schedule: Q01DX009 (ip), vehicle: saline with Tween-80 101 % of control | [7] 107 % of control | [8] 93 % of control | [9] 102 % of control | [1] 103 % of control | [2] 103 % of control | [10] 102 % of control

Cc1ccnc(NS(=O)(=O)c2ccc(N=NC3SC(=S)NC3=O)cc2)n1 (stereo unspecified)
inactive: dose: 75.0 mg/kg/injection, schedule: Q01DX001 (ip), vehicle: saline 100 % of control | dose: 150.0 mg/kg/injection, schedule: Q01DX001 (ip), vehicle: saline 101 % of control | dose: 300.0 mg/kg/injection, schedule: Q01DX001 (ip), vehicle: saline 98 % of control

Nc1cc(NCc2ccccc2)nc(=O)[nH]1
inactive: dose: 100.0 mg/kg/injection, schedule: Q01DX001 (ip), vehicle: gum acacia 97 % of control | dose: 200.0 mg/kg/injection, schedule: Q01DX001 (ip), vehicle: gum acacia 95 % of control | dose: 400.0 mg/kg/injection, schedule: Q01DX001 (ip), vehicle: gum acacia 101 % of control

CSc1ncnc2c1nnn2C1CC(CO)C(O)C1O (stereo unspecified)
inactive: dose: 100.0 mg/kg/injection, schedule: Q01DX001 (ip), vehicle: Klucel (hydroxypropylcellulose) (HPC) 95 % of control | dose: 200.0 mg/kg/injection, schedule: Q01DX001 (ip), vehicle: Klucel (hydroxypropylcellulose) (HPC) 101 % of control | dose: 400.0 mg/kg/injection, schedule: Q01DX001 (ip), vehicle: Klucel (hydroxypropylcellulose) (HPC) 102 % of control

COC1(c2ccco2)OC1(C)C (stereo unspecified)
inactive: dose: 5.0 mg/kg/injection, schedule: Q01DX009 (ip), vehicle: saline with Tween-80 94 % of control | dose: 5.0 mg/kg/injection, schedule: Q04DX003 (ip), vehicle: saline with Tween-80 96 % of control | dose: 10.0 mg/kg/injection, schedule: Q01DX009 (ip), vehicle: saline with Tween-80 97 % of control | dose: 10.0 mg/kg/injection, schedule: Q04DX003 (ip), vehicle: saline with Tween-80 102 % of control | dose: 20.0 mg/kg/injection, schedule: Q01DX009 (ip), vehicle: saline with Tween-80 116 % of control | dose: 20.0 mg/kg/injection, schedule: Q04DX003 (ip), vehicle: saline with Tween-80 98 % of control

O=[N+]([O-])c1cc(F)c(F)cc1F
inactive: [11] 98 % of control | [12] 107 % of control

CS(=O)(=O)N(c1ccccc1)c1ccccc1[N+](=O)[O-]
inactive: dose: 100.0 mg/kg/injection, schedule: Q01DX001 (ip), vehicle: other 117 % of control | dose: 200.0 mg/kg/injection, schedule: Q01DX001 (ip), vehicle: other 96 % of control | dose: 400.0 mg/kg/injection, schedule: Q01DX001 (ip), vehicle: other 111 % of control

CC(=O)Nc1c(I)c(NC(C)=O)c(I)c(C(=O)O)c1I
inactive: [8] 105 % of control | [2] 99 % of control | [4] 108 % of control

CCOC(=O)/C(O)=C(\C=N\C(N)=O)C(=O)OCC
inactive: dose: 100.0 mg/kg/injection, schedule: Q04DX003 (ip), vehicle: saline sonified 93 % of control | dose: 200.0 mg/kg/injection, schedule: Q04DX003 (ip), vehicle: saline sonified 103 % of control | dose: 400.0 mg/kg/injection, schedule: Q04DX003 (ip), vehicle: saline sonified 95 % of control

N#CCCN1CCCSC1=S
inactive: dose: 75.0 mg/kg/injection, schedule: Q01DX001 (ip), vehicle: other 109 % of control | dose: 150.0 mg/kg/injection, schedule: Q01DX001 (ip), vehicle: other 115 % of control | dose: 300.0 mg/kg/injection, schedule: Q01DX001 (ip), vehicle: other 113 % of control

CCOC(=O)C1CCC(C(=O)OCC)N1Cc1ccccc1 (stereo unspecified)
inactive: dose: 100.0 mg/kg/injection, schedule: Q01DX009 (ip), vehicle: saline 101 % of control | dose: 200.0 mg/kg/injection, schedule: Q01DX009 (ip), vehicle: saline 104 % of control | dose: 400.0 mg/kg/injection, schedule: Q01DX009 (ip), vehicle: saline 108 % of control

NC(=O)c1cc(O)c(O)c(O)c1
inactive: dose: 100.0 mg/kg/injection, schedule: Q01DX001 (ip), vehicle: saline 102 % of control | dose: 200.0 mg/kg/injection, schedule: Q01DX001 (ip), vehicle: saline 102 % of control | dose: 400.0 mg/kg/injection, schedule: Q01DX001 (ip), vehicle: saline 102 % of control

CC(=O)OCN1C(=O)C2C3CCC(O3)C2C1=O (stereo unspecified)
inactive: [7] 104 % of control | [9] 98 % of control | [1] 106 % of control | [10] 95 % of control and 104 % of control | [3] 98 % of control

COc1ccccc1-n1c(O)c(N=Nc2ccccc2C)c(=O)n(-c2ccccc2OC)c1=S
inactive: [11] 96 % of control | [12] 94 % of control | dose: 400.0 mg/kg/injection, schedule: Q04DX003 (ip), vehicle: Klucel (hydroxypropylcellulose) (HPC) 100 % of control

C[N+](C)(C)CC(O)COc1ccc(Cl)cc1Cl (stereo unspecified)
inactive: [5] 97 % of control | [6] 101 % of control | dose: 100.0 mg/kg/injection, schedule: Q04DX002 (ip), vehicle: Klucel (hydroxypropylcellulose) (HPC) 94 % of control and 89 % of control

Cc1ccc2c(c1)nc1c3ccccc3nc(-c3ccccc3N)n21
inactive: [2] 89 % of control | [10] 104 % of control | [4] 87 % of control | dose: 200.0 mg/kg/injection, schedule: Q04DX003 (ip), vehicle: saline with Tween-80 91 % of control | dose: 400.0 mg/kg/injection, schedule: Q04DX003 (ip), vehicle: saline with Tween-80 104 % of control

CCOCC(C#N)C#N
inactive: dose: 6.25 mg/kg/injection, schedule: Q01DX009 (ip), vehicle: saline 94 % of control | dose: 6.25 mg/kg/injection, schedule: Q04DX003 (ip), vehicle: saline 96 % of control | dose: 12.5 mg/kg/injection, schedule: Q01DX009 (ip), vehicle: saline 92 % of control | dose: 12.5 mg/kg/injection, schedule: Q04DX003 (ip), vehicle: saline 106 % of control | dose: 25.0 mg/kg/injection, schedule: Q04DX003 (ip), vehicle: saline 99 % of control

O=C1C(Cl)CCCCC1Cl (stereo unspecified)
inactive: dose: 100.0 mg/kg/injection, schedule: Q01DX009 (ip), vehicle: acetone 93 % of control | dose: 100.0 mg/kg/injection, schedule: Q04DX003 (ip), vehicle: acetone 111 % of control | dose: 200.0 mg/kg/injection, schedule: Q01DX009 (ip), vehicle: acetone 91 % of control | dose: 200.0 mg/kg/injection, schedule: Q04DX003 (ip), vehicle: acetone 111 % of control | dose: 400.0 mg/kg/injection, schedule: Q04DX003 (ip), vehicle: acetone 92 % of control

O=C(CCN1CC1)N1CCOCC1
inactive: dose: 100.0 mg/kg/injection, schedule: Q04DX003 (ip), vehicle: saline 108 % of control | dose: 200.0 mg/kg/injection, schedule: Q04DX003 (ip), vehicle: saline 100 % of control | dose: 400.0 mg/kg/injection, schedule: Q04DX003 (ip), vehicle: saline 113 % of control
